The subject of this assay is Lewis lung carcinoma cells. Description: Photosensitization of tumors: days for Lewis lung carcinoma to regrow to palpable tumor in mice after red-light irradiation. In kind it is in vivo. Conditions: 25-60 mg/kg, i.p. or i.v.; red light 24 h after dosing; groups of 10 C57BL mice; end point 5 out of 10 mice regrow palpable tumor. From the text: Lewis lung carcinoma cells (Dr. L. Dent, Flinders Medical Centre), are transplanted into the back of C57BL mice by subcutaneous injection of approximately 10^6 cells per mouse. […] Twenty-four hours later mice are anesthetized, the fur over the tumor shaved, and a 1 cm diameter area over the tumor is irradiated with red light as specified. Mice are palpated daily for recurrence of tumor. The end point is the number of days for 5 out of 10 mice to regrow palpable tumor.
Light can be supplied by a gold metal vapor laser (Quentron Optica Pty. Ltd.) with wavelength 627.8 nm. This laser generates average light intensities of 400 mW coupled to a 400 um quartz fiber and can be positioned to create a 1 cm diameter spot.
Data were recorded as "TC50 "--the first time (in days) after treatment for the tumor to regrow to a palpable stage (as shown in Table 1).

Consider “Divinyldeuteroporphyrin Ether-linked Dimer [(1) where both R = vinyl]”, for which the “TC50 (first time after treatment for the tumor to regrow to a palpable stage)” value is reported as 7 days.

In the case of “Monohydroxyethyl Monovinyl Deuteroporphyrin Ether-linked Dimer”, the “TC50 (first time after treatment for the tumor to regrow to a palpable stage)” value came to 3 days.

Source of the values: US4961920A, “Phototherapeutic monovinyl and divinyl ether-linked dimers” (Luminis Pty, Ltd., priority 1988, dated 1990).
